# Legend:
# MCF-7 organoids = assay: HSLCI mass tracking of bioprinted organoids in drug screening; type: cell-based; conditions: for Organoid Behavior (%) Stable / Organoid Behavior (%) Gained Mass / Organoid Behavior (%) Lost Mass: MCF-7 organoids; for Organoid Behavior (%) Stable: mass change <10%; for Organoid Behavior (%) Gained Mass: mass increase >10%; for Organoid Behavior (%) Lost Mass: mass loss >10%
# Source text: (§1) Cells were bioprinted using a CELLINK BioX with a Temperature-Controlled Printhead. Gcode files were written to print the desired single-layer geometry. We wrote standardized blocks of Gcode encode the print path for the repeated geometries. MATLAB (MathWorks, Inc.) was used to integrate these standardized blocks into full Gcode files with the defined coordinates for each well. We used 8-well plates when printing the larger constructs as the depth of the well in a standard 24-well plate prohibited the use of 0.5″ length needles. Large rings were necessary to deposit a sufficient number of cells for RNA-Seq and IHC. Four rings with a diameter of 14.5 mm were printed for RNA sequencing (approximately 200,000 cells total), while four sets of concentric 14.5 mm, 12.5 mm, and 10.5 mm diameter rings were used for IHC analysis (approximately 500,000 cells total). We printed mini-squares with side length 3.9 mm for drug screening and HSLCI imaging. The mini-squares were inscribed within the circular well with sides parallel to the sides of the well plate. The open center of the constructs facilitates automatic manipulation with fluid handling equipment while the sides of the square are positioned to maximize the number of organoids imaged by HSLCI. The bioprinting process utilized the same material deposited for manually seeded organoids. A single cell suspension, aggregates or clusters in a 3:4 mixture of MammoCult™ and Matrigel® was prepared on ice. After vortexing briefly to homogenize, the mixture was transferred into a 3 mL syringe by removing the plunger and capping the opposite end. Once the plunger was replaced, the syringe was inverted, and bubbles were forced out of the tip. The material was then transferred to a room temperature 3 mL bioprinter cartridge (CELLINK) by connecting the syringe and cartridge with a double-sided female Luer lock adapter (CELLINK). Any air bubbles in the syringe were removed and the loaded cartridge was incubated in a rotating incubator (Enviro-Genie, Scientific Industries) for 30 minutes at the print temperature.
# (§2) During the incubation period, the printer was sterilized with the built-in UV irradiation function and the printhead was set to the print temperature. […] The well masks were autoclaved prior to use. The masks were inserted into the well plate and pressed in contact with the glass surface. Rubber bands were used to hold the masks in place and ensure conformal contact was maintained throughout the plasma treatment. The well plates were treated with oxygen plasma in a PE-25 (Plasma Etch) for 30-90 seconds, 15 minutes prior to bioprinting. After plasma treatment, the well plate was placed in the bioprinter and Automatic Bed Levelling (ABL) was performed.
# (§3) Once the incubation period ended, we attached a 0.5″ 25-gauge needle and loaded the cartridge into the pre-cooled printhead. We primed the needle by extruding a small volume of material at 15 kPa prior to calibrating the printer. Just before printing, we cleared the needle of the gelled material by extruding a small volume using 40 kPa prior to starting the print. To create constructs of the appropriate thicknesses, prints in 8-well plates were extruded at 15 kPa while prints in 96-well plates were extruded at 12-15 kPa. […] After printing, the constructs were incubated at 37° C. for at least 30 minutes to solidify the matrix and 100 μL of MammoCult™ medium was then added.
# (§4) The HSLCI platform was installed inside a standard cell culture incubator. For all growth kinetics studies and drug screening, organoids were imaged in 96-well glass-bottom plates (Cellvis P96-1.5H-N) using a 40× objective (Nikon, NA 0.75). Organoids were seeded as single-cell suspensions in a 3:4 mixture of MammoCult™ and Matrigel® as described above and were grown at 37° C. and 5% CO2 in MammoCult™ medium supplemented with 1% antibiotic-antimycotic (Gibco 15240-062).
# BT-474 organoids = assay: as above; type: cell-based; conditions: for Organoid Behavior (%) Lost Mass: mass loss >10%; for Organoid Behavior (%) Stable: mass change <10%; for Organoid Behavior (%) Gained Mass: mass increase >10%
# Source text: as §1, §2, §3, §4
smiles,measurement,setting,value
"CS(=O)(=O)CCNCc1ccc(-c2ccc3ncnc(Nc4ccc(OCc5cccc(F)c5)c(Cl)c4)c3c2)o1 [Lapatinib, lapatinib]","Mean mass of MCF-7 organoids, Mean mass ± SD","MCF-7 organoids; 0.1 μM, 6 hours of treatment",2.00 ± 1.43 ng
same,"Mean mass of MCF-7 organoids, Mean mass ± SD","MCF-7 organoids; 0.1 μM, 48 hours of treatment",2.76 ± 2.35 ng
same,"Mean mass of MCF-7 organoids, Mean mass ± SD","MCF-7 organoids; 1 μM, 6 hours of treatment",2.20 ± 1.33 ng
same,"Mean mass of MCF-7 organoids, Mean mass ± SD","MCF-7 organoids; 1 μM, 48 hours of treatment",2.71 ± 2.09 ng
same,"Mean mass of MCF-7 organoids, Mean mass ± SD","MCF-7 organoids; 10 μM, 6 hours of treatment",2.30 ± 1.48 ng
same,"Mean mass of MCF-7 organoids, Mean mass ± SD","MCF-7 organoids; 10 μM, 48 hours of treatment",2.46 ± 1.90 ng
same,"Mean mass of MCF-7 organoids, Mean mass ± SD","MCF-7 organoids; 50 μM, 6 hours of treatment",1.71 ± 0.84 ng
same,"Mean mass of MCF-7 organoids, Mean mass ± SD","MCF-7 organoids; 50 μM, 48 hours of treatment",1.32 ± 1.03 ng
same,"Mean mass of MCF-7 organoids, Mean mass ± SD","MCF-7 organoids; 50 μM, 48 hours of treatment, listed as lapatinib",1.32 ± 1.06 ng
same,Organoid Behavior (%) Stable,"MCF-7 organoids; 0.1 μM, 12 h",73.5%
same,Organoid Behavior (%) Gained Mass,"MCF-7 organoids; 0.1 μM, 12 h",17.6%
same,Organoid Behavior (%) Lost Mass,"MCF-7 organoids; 0.1 μM, 12 h",8.8%
same,Organoid Behavior (%) Stable,"MCF-7 organoids; 0.1 μM, 24 h",56.3%
same,Organoid Behavior (%) Gained Mass,"MCF-7 organoids; 0.1 μM, 24 h",28.1%
same,Organoid Behavior (%) Lost Mass,"MCF-7 organoids; 0.1 μM, 24 h",15.6%
same,Organoid Behavior (%) Stable,"MCF-7 organoids; 0.1 μM, 48 h",34.4%
same,Organoid Behavior (%) Gained Mass,"MCF-7 organoids; 0.1 μM, 48 h",46.9%
same,Organoid Behavior (%) Lost Mass,"MCF-7 organoids; 0.1 μM, 48 h",18.8%
same,Organoid Behavior (%) Stable,"MCF-7 organoids; 1 μM, 12 h",88.2%
same,Organoid Behavior (%) Gained Mass,"MCF-7 organoids; 1 μM, 12 h",8.8%
same,Organoid Behavior (%) Lost Mass,"MCF-7 organoids; 1 μM, 12 h",2.9%
same,Organoid Behavior (%) Stable,"MCF-7 organoids; 1 μM, 24 h",45.2%
same,Organoid Behavior (%) Gained Mass,"MCF-7 organoids; 1 μM, 24 h",45.2%
same,Organoid Behavior (%) Lost Mass,"MCF-7 organoids; 1 μM, 24 h",9.7%
same,Organoid Behavior (%) Stable,"MCF-7 organoids; 1 μM, 48 h",26.3%
same,Organoid Behavior (%) Gained Mass,"MCF-7 organoids; 1 μM, 48 h",55.3%
same,Organoid Behavior (%) Lost Mass,"MCF-7 organoids; 1 μM, 48 h",18.4%
same,Organoid Behavior (%) Stable,"MCF-7 organoids; 10 μM, 12 h",84.1%
same,Organoid Behavior (%) Gained Mass,"MCF-7 organoids; 10 μM, 12 h",6.8%
same,Organoid Behavior (%) Lost Mass,"MCF-7 organoids; 10 μM, 12 h",9.1%
same,Organoid Behavior (%) Stable,"MCF-7 organoids; 10 μM, 24 h",56.5%
same,Organoid Behavior (%) Gained Mass,"MCF-7 organoids; 10 μM, 24 h",26.1%
same,Organoid Behavior (%) Lost Mass,"MCF-7 organoids; 10 μM, 24 h",17.4%
same,Organoid Behavior (%) Stable,"MCF-7 organoids; 10 μM, 48 h",32.4%
same,Organoid Behavior (%) Gained Mass,"MCF-7 organoids; 10 μM, 48 h",32.4%
same,Organoid Behavior (%) Stable,"MCF-7 organoids; 50 μM, 12 h",58.6%
same,Organoid Behavior (%) Gained Mass,"MCF-7 organoids; 50 μM, 12 h",6.9%
same,Organoid Behavior (%) Stable,"MCF-7 organoids; 50 μM, 24 h",39.3%
same,Organoid Behavior (%) Gained Mass,"MCF-7 organoids; 50 μM, 24 h",14.3%
same,Organoid Behavior (%) Lost Mass,"MCF-7 organoids; 50 μM, 24 h",46.4%
same,Organoid Behavior (%) Stable,"MCF-7 organoids; 50 μM, 48 h",43.5%
same,Organoid Behavior (%) Gained Mass,"MCF-7 organoids; 50 μM, 48 h",4.3%
same,Organoid Behavior (%) Lost Mass,"MCF-7 organoids; 50 μM, 48 h",52.2%
same,"Mean mass of BT-474 organoids, Mean mass ± SD","BT-474 organoids; 0.1 μM, 6 hours of treatment",1.84 ± 1.21 ng
same,"Mean mass of BT-474 organoids, Mean mass ± SD","BT-474 organoids; 0.1 μM, 48 hours of treatment",2.33 ± 1.58 ng
same,"Mean mass of BT-474 organoids, Mean mass ± SD","BT-474 organoids; 1 μM, 6 hours of treatment",1.58 ± 0.78 ng
same,"Mean mass of BT-474 organoids, Mean mass ± SD","BT-474 organoids; 1 μM, 48 hours of treatment",1.48 ± 0.66 ng
same,"Mean mass of BT-474 organoids, Mean mass ± SD","BT-474 organoids; 10 μM, 6 hours of treatment",1.74 ± 0.88 ng
same,"Mean mass of BT-474 organoids, Mean mass ± SD","BT-474 organoids; 10 μM, 48 hours of treatment",1.42 ± 0.75 ng
same,"Mean mass of BT-474 organoids, Mean mass ± SD","BT-474 organoids; 50 μM, 6 hours of treatment",1.58 ± 0.70 ng
same,"Mean mass of BT-474 organoids, Mean mass ± SD","BT-474 organoids; 50 μM, 48 hours of treatment",0.92 ± 0.48 ng
same,Organoid Behavior (%) Lost Mass,"BT-474 organoids; BT-474 organoids, 0.1 μM, 12 h",3.1%
same,Organoid Behavior (%) Stable,"BT-474 organoids; BT-474 organoids, 0.1 μM, 24 h",45.6%
same,Organoid Behavior (%) Gained Mass,"BT-474 organoids; BT-474 organoids, 0.1 μM, 24 h",49.1%
same,Organoid Behavior (%) Lost Mass,"BT-474 organoids; BT-474 organoids, 0.1 μM, 24 h",5.3%
same,Organoid Behavior (%) Stable,"BT-474 organoids; BT-474 organoids, 0.1 μM, 48 h",25.8%
same,Organoid Behavior (%) Gained Mass,"BT-474 organoids; BT-474 organoids, 0.1 μM, 48 h",67.7%
same,Organoid Behavior (%) Lost Mass,"BT-474 organoids; BT-474 organoids, 0.1 μM, 48 h",6.5%
same,Organoid Behavior (%) Lost Mass,"BT-474 organoids; BT-474 organoids, 1 μM, 12 h",7.4%
same,Organoid Behavior (%) Stable,"BT-474 organoids; BT-474 organoids, 1 μM, 24 h",54.2%
same,Organoid Behavior (%) Gained Mass,"BT-474 organoids; BT-474 organoids, 1 μM, 24 h",20.3%
same,Organoid Behavior (%) Lost Mass,"BT-474 organoids; BT-474 organoids, 1 μM, 24 h",25.4%
same,Organoid Behavior (%) Stable,"BT-474 organoids; BT-474 organoids, 1 μM, 48 h",50.0%
same,Organoid Behavior (%) Gained Mass,"BT-474 organoids; BT-474 organoids, 1 μM, 48 h",27.5%
same,Organoid Behavior (%) Lost Mass,"BT-474 organoids; BT-474 organoids, 1 μM, 48 h",22.5%
same,Organoid Behavior (%) Gained Mass,"BT-474 organoids; BT-474 organoids, 10 μM, 12 h",19.6%
same,Organoid Behavior (%) Lost Mass,"BT-474 organoids; BT-474 organoids, 10 μM, 12 h",7.1%
same,Organoid Behavior (%) Stable,"BT-474 organoids; BT-474 organoids, 10 μM, 24 h",60.3%
same,Organoid Behavior (%) Gained Mass,"BT-474 organoids; BT-474 organoids, 10 μM, 24 h",9.5%
same,Organoid Behavior (%) Lost Mass,"BT-474 organoids; BT-474 organoids, 10 μM, 24 h",30.2%
same,Organoid Behavior (%) Stable,"BT-474 organoids; BT-474 organoids, 10 μM, 48 h",47.2%
same,Organoid Behavior (%) Gained Mass,"BT-474 organoids; BT-474 organoids, 10 μM, 48 h",15.1%
same,Organoid Behavior (%) Lost Mass,"BT-474 organoids; BT-474 organoids, 10 μM, 48 h",37.7%
same,Organoid Behavior (%) Lost Mass,"BT-474 organoids; BT-474 organoids, 50 μM, 12 h",18.5%
same,Organoid Behavior (%) Stable,"BT-474 organoids; BT-474 organoids, 50 μM, 24 h",55.6%
same,Organoid Behavior (%) Gained Mass,"BT-474 organoids; BT-474 organoids, 50 μM, 24 h",9.7%
same,Organoid Behavior (%) Lost Mass,"BT-474 organoids; BT-474 organoids, 50 μM, 24 h",34.7%
same,Organoid Behavior (%) Gained Mass,"BT-474 organoids; BT-474 organoids, 50 μM, 48 h",3.8%
same,Organoid Behavior (%) Lost Mass,"BT-474 organoids; BT-474 organoids, 50 μM, 48 h",84.6%
same,lowest concentration at which organoids were affected (average mass),"BT-474 organoids; BT-474 organoids, 48 h",1 µM

# — patent US20240069010A1, “TISSUE ORGANOID BIOPRINTING AND HIGH-THROUGHPUT SCREENING METHODOLOGY” (priority 2020, published 2024)
